“And” between values parts separate entries of the source, which are not always exact repeats. Identical values can stand only once.
How the values were obtained:
[1] = system: tomato leaf transpiration; assay: Tomato leaf transpiration inhibition after foliar spray (LI-1600 porometer); type: in vivo, Tomato (variety: Rutgers); details: for Transpiration rate (% of control), 1 day after treatment: day 1; for Transpiration rate (% of control), 2 days after treatment: day 2; for Transpiration rate (% of control), 3 days after treatment: day 3; for Transpiration rate (% of control), 4 days after treatment: day 4; for Transpiration rate (% of control), 7 days after treatment: day 7; for ABA dose to achieve 50% inhibition of transpiration: from linear regression of 3-day average transpiration rate on log dose
Description: (§1) Preparation of plant specimens for use in the treatment studies of the EXAMPLES that follow was carried out as follows. Tomato (variety: Rutgers) seeds were sown in an 18-cell flat filled with Promix PGX (available from Premier Horticulture Inc., Quakertown Pa.) and grown for 3 weeks to allow for germination and initial growth. Plants were then transplanted into pots (18 cm in diameter and 18 cm in height), filled with Promix BX (available from Premier Horticulture Inc., Quakertown Pa.), and grown for one or two more weeks before treatment, depending on temperature and available light. Plants received daily irrigation and weekly fertilizer (1 g/L all purpose fertilizer 20-20-20, available from The Scotts Company, Marysville, Ohio).
(§2) All treatment solutions were made up with distilled water. The (S)-(+)-abscisic acid (95% active ingredient) is available from Lomon BioTechnology Co., Ltd. (Shichuan, China). The prior art aqueous solution composition of the ammonium salt of (S)-(+)-abscisic acid as prepared in Example 11 above was used as a positive treatment control for most of the studies.
(§3) All experiments were conducted using a randomized complete block experimental design. Solutions of (S)-(+)-abscisic acid and blank treatments (plain water) were applied by spray to the aerial parts of the tomato plants at the rate of 24 mL per 6 plants. Plants were then placed in a transparent chamber with humidity controlled within the range of 40 to 60% relative humidity. Leaf transpiration rates were measured at 1, 2, 3, 4 and 7 days after treatment. Measurements were conducted using a LI-1600 Steady State Porometer (LI-Cor, Lincoln, Nebr.). Each day the transpiration rate of the plants of each treatment group was normalized to a percentage of the transpiration rate of untreated plants (plants sprayed with water only) in order to control for day-to-day variability in plant status caused by changes of environmental conditions such as light intensity and temperature. Data for each plant was also averaged over a 3-day period to balance the short term and long term effect of (S)-(+)-abscisic acid on tomato leaf transpiration as well as to reduce experimental variability.
The regression equation of each (S)-(+)-abscisic acid salt as well as abscisic acid concentrations for 50% inhibition of transpiration were calculated. The relative potency of two ABA salts is the reciprocal of the ratio of (S)-(+)-abscisic acid concentration required for 50% transpiration inhibition for each composition.

tomato plants = assay: Phytotoxicity observed on treated tomato plants; type: in vivo, Tomato (variety: Rutgers)
Description: as §3, with “variability. It is important to note that no phytotoxicity was observed on any of the plants treated with the compositions of the present invention.” for “variability.”

[2] = system: tomato shoot fresh weight; assay: Tomato shoot fresh weight 7 days after treatment (growth suppression); type: in vivo, Tomato (variety: Rutgers); details: foliar spray
Description: as §1, §2, §3
In this experiment, the fresh weights of the aerial parts of the tomato plants were also measured at the end of the experiment, 7 days after treatments were applied, in order to assess the relative growth suppressing activity of the compositions.

[3] = cited from earlier work
[4] = (S)-(+)-abscisic acid dose 0.3 mg, foliar spray
[5] = (S)-(+)-abscisic acid dose 1 mg, foliar spray
[6] = (S)-(+)-abscisic acid dose 3 mg, foliar spray
[7] = (S)-(+)-abscisic acid dose 10 mg, foliar spray
[8] = foliar spray, 250 ppm (S)-(+)-abscisic acid (1 mg), additives as in label
[9] = reciprocal of ratio of doses for 50% transpiration inhibition
[10] = 75 ppm (0.3 mg) (S)-(+)-abscisic acid
[11] = 250 ppm (1 mg) (S)-(+)-abscisic acid, additives as in label
[12] = 750 ppm (3 mg) (S)-(+)-abscisic acid
[13] = 2500 ppm (10 mg) (S)-(+)-abscisic acid

Structure (SMILES)	Transpiration rate (% of control), Average of 3 days after treatment [1, 4]	Transpiration rate (% of control), Average of 3 days after treatment [1, 5]	Transpiration rate (% of control), Average of 3 days after treatment [1, 6]	Transpiration rate (% of control), Average of 3 days after treatment [1, 7]	Transpiration rate (% of control), 7-Day Average [1, 8]	Transpiration rate (% of control), 1 day after treatment [1, 8]	Transpiration rate (% of control), 2 days after treatment [1, 8]	Transpiration rate (% of control), 3 days after treatment [1, 8]	Transpiration rate (% of control), 4 days after treatment [1, 8]	Transpiration rate (% of control), 7 days after treatment [1, 8]	ABA dose to achieve 50% inhibition of transpiration [1]	Fresh weight (g) 7 days after treatment [2, 10]	Fresh weight (g) 7 days after treatment [2, 11]	Fresh weight (g) 7 days after treatment [2, 12]	Fresh weight (g) 7 days after treatment [2, 13]	further results
CC1=CC(=O)CC(C)(C)[C@@]1(O)/C=C/C(C)=C\C(=O)[O-].CCCC[N+](CCCC)(CCCC)CCCC [Example 4, Tetrabutylammonium Salt of (S)-(+)-Abscisic Acid]	84 % of control and 80 % of control	72 % of control and 61 % of control	56 % of control and 47 % of control	38 % of control and 29 % of control	70.9 % of control	63.4 % of control and 55.1 % of control	73.9 % of control and 61.0 % of control	77.8 % of control and 68.3 % of control	79.3 % of control and 77.6 % of control	89.2 % of control and 92.4 % of control	4.35 mg and 2.33 mg	15.3 g	14.8 g	12.5 g	11.4 g	Transpiration rate (% of control), 9-Day Average ([1]; foliar spray, 250 ppm (S)-(+)-abscisic acid (1 mg), additives as in label, 9-day average): 79.7 % of control; Transpiration rate (% of control), 9 days after treatment ([1]; foliar spray, 250 ppm (S)-(+)-abscisic acid (1 mg), additives as in label, day 9): 94.6 % of control; Relative potency compared to the tributylamine salt composition of Comparative Example 14 [1, 9]: 1.9 times; Phytotoxicity (tomato plants; tomato plants after foliar spray): without producing phytotoxicity
CC1=CC(=O)CC(C)(C)[C@@]1(O)/C=C/C(C)=C\C(=O)[O-].C[N+](C)(C)CCO [Example 5, Choline Salt of (S)-(+)-abscisic Acid]	78 % of control	63 % of control	53 % of control	41 % of control	72.5 % of control	52.3 % of control	63.7 % of control	73.8 % of control	79.0 % of control	93.4 % of control	4.02 mg	18.2 g	17.5 g	16.8 g	16.0 g	Relative potency compared to the ammonium salt composition of Comparative Example 11 [1, 9]: 2.6 times and 4.2 times; Phytotoxicity (tomato plants; in vivo): without producing phytotoxicity
CC1=CC(=O)CC(C)(C)[C@@]1(O)/C=C/C(C)=C\C(=O)O [abscisic acid, 2-cis-,4-trans-(S)-(+)-abscisic acid]																Solubility in propylene glycol ([3]; propylene glycol): poorly soluble; Solubility in water (highest concentration achievable) ([3]; pure water, room / ordinary ambient temperature): ≤ 3000 ppm
